Test in all cases: In vitro cell assay, MTS cell viability 96 hours after treatment
Format in all cases: cell-based

The subject of one test is BT474 (breast cancer). The following applies: Homo sapiens, BT-474, BT474 cells; geometric mean; cytotoxic peptides; read-out: BT474 GMEAN IC50. The procedure:
(§1) Cells were treated with 3-fold serially diluted antibody-drug conjugates or free compounds (i.e., no antibody conjugated to the drug) in duplicate at 10 concentrations. Cell viability was determined by CellTiter 96® AQueous One Solution Cell Proliferation MTS Assay (Promega, Madison Wis.) 96 hours after treatment. Relative cell viability was determined as percentage of untreated control.

The test system of test [1] is MDA-MB-361-DYT2 (breast cancer). The following applies: read-out: MDA-MB-361-DYT2 GMEAN IC50, MDA-MB-361-DYT2 cells; geometric mean; cytotoxic peptides. The procedure: as §1
In a further test the test system is N87 (gastric cancer). The following applies: read-out: N87 GMEAN IC50, N87 cells; geometric mean; cytotoxic peptides. As to the method:
as §1

This passage reports IC50 results from patent US8828401B2, “Cytotoxic peptides and antibody drug conjugates thereof” (Pfizer Inc., priority 2011, dated 2014).

Structures are written as SMILES. Non-standard residues stand in square brackets, D forms with d. Residues, ends and D or L forms follow the SMILES beside them. *: point of attachment. Dolaproine = CO[C@@H]([C@@H]1CCCN1)[C@@H](C)C(=O)O; Dil = CC[C@H](C)[C@H](NC)[C@@H](CC(=O)O)OC; Phe(4-NH2) = Nc1ccc(C[C@H](N)C(=O)O)cc1; X9 = Cc1cc(-c2nc3cc(F)ccc3s2)ccc1N*; Doe = c1ccc(C[C@H](N*)c2nccs2)cc1; NHPhenethyl = c1ccc(CCN*)cc1; X1 = CN1CCC[C@]1(C)C(=O)*; NMeAib = CNC(C)(C)C(=O)O; Ac5c = NC1(C(=O)O)CCCC1; Aib = CC(C)(N)C(=O)O; NHtBu = CC(C)(C)N*; OtBu = CC(C)(C)O*

A word on the IC50: it is the concentration that gives 50% inhibition. For `CC[C@H](C)[C@@H]([C@@H](CC(=O)N1CCC[C@H]1[C@H](OC)[C@@H](C)C(=O)N[C@@H](Cc1ccccc1)C(=O)OC)OC)N(C)C(=O)[C@@H](NC(=O)[C@]1(C)CCCCN1)C(C)C` (single isomer, unassigned) [#158], the figures for the IC50 (with BT474 (breast cancer); in test [1]; in the test with N87 (gastric cancer)) were 82 pM, 100 pM and 115 pM, respectively.

With `CC[C@H](C)[C@@H]([C@@H](CC(=O)N1CCC[C@H]1[C@H](OC)[C@@H](C)C(=S)N[C@@H](Cc1ccccc1)c1nccs1)OC)N(C)C(=O)[C@@H](NC(=O)C1(N)CCCC1)C(C)C` [#30, N^2-[(1-aminocyclopentyl)carbonyl]-N-[(3R,4S,5S)-3-methoxy-1-{(2S)-2-[(1R,2R)-1-methoxy-2-methyl-3-{[(1S)-2-phenyl-1-(1,3-thiazol-2-yl)ethyl]amino}-3-thioxopropyl]pyrrolidin-1-yl}-5-methyl-1-oxoheptan-4-yl]-N-methyl-L-valinamide], the IC50 is 682 pM with BT474 (breast cancer), 1850 pM in test [1] and 6710 pM in the test on N87 (gastric cancer).

Turning to `CC[C@H](C)[C@@H]([C@@H](CC(=O)N1CCC[C@H]1[C@H](OC)[C@@H](C)C(=S)N[C@@H](Cc1ccccc1)c1nccs1)OC)N(C)C(=O)[C@@H](NC(=O)C(C)(C)N)C(C)C` [#34, 2-methylalanyl-N-[(3R,4S,5S)-3-methoxy-1-{(2S)-2-[(1R,2R)-1-methoxy-2-methyl-3-{[(1S)-2-phenyl-1-(1,3-thiazol-2-yl)ethyl]amino}-3-thioxopropyl]pyrrolidin-1-yl}-5-methyl-1-oxoheptan-4-yl]-N-methyl-L-valinamide], the IC50 in the test on BT474 (breast cancer) was found to be 211 pM; in test [1], 1120 pM; in the test on N87 (gastric cancer), 1950 pM.

`CC[C@H](C)[C@@H]([C@@H](CC(=O)N1CCC[C@H]1[C@H](OC)[C@@H](C)C(=S)N[C@@H](Cc1ccccc1)C(=O)O)OC)N(C)C(=O)[C@@H](NC(=O)[C@@H](NC)C(C)C)C(C)C` [#41, N-methyl-L-valyl-N-[(3R,4S,5S)-1-{(2S)-2-[(1R,2R)-3-{[(1S)-1-carboxy-2-phenylethyl]amino}-1-methoxy-2-methyl-3-thioxopropyl]pyrrolidin-1-yl}-3-methoxy-5-methyl-1-oxoheptan-4-yl]-N-methyl-L-valinamide]: the IC50 in the test on BT474 (breast cancer) was 29700 pM; in test [1], 51800 pM; in the test on N87 (gastric cancer) it was 33200 pM.

Regarding `CC[C@H](C)[C@@H]([C@@H](CC(=O)N1CCC[C@H]1[C@H](OC)[C@@H](C)C(=S)N[C@@H](Cc1ccccc1)C(=O)OC)OC)N(C)C(=O)[C@@H](NC(=O)[C@@H](NC)C(C)C)C(C)C` [#42, N-methyl-L-valyl-N-[(3R,4S,5S)-3-methoxy-1-{(2S)-2-[(1R,2R)-1-methoxy-3-{[(2S)-1-methoxy-1-oxo-3-phenylpropan-2-yl]amino}-2-methyl-3-thioxopropyl]pyrrolidin-1-yl}-5-methyl-1-oxoheptan-4-yl]-N-methyl-L-valinamide], the results for the IC50 (in the test on BT474 (breast cancer); in test [1]; with N87 (gastric cancer)) were 125 pM, 195 pM and 327 pM, respectively.

Take `CC[C@H](C)[C@@H]([C@@H](CC(=O)N1CCC[C@H]1[C@H](OC)[C@@H](C)C(=S)N[C@@H](Cc1ccccc1)C(=O)O)OC)N(C)C(=O)[C@@H](NC(=O)C(C)(C)N)C(C)C` [#44, 2-methylalanyl-N-[(3R,4S,5S)-1-{(2S)-2-[(1R,2R)-3-{[(1S)-1-carboxy-2-phenylethyl]amino}-1-methoxy-2-methyl-3-thioxopropyl]pyrrolidin-1-yl}-3-methoxy-5-methyl-1-oxoheptan-4-yl]-N-methyl-L-valinamide]: the IC50 is 7120 pM in the test on BT474 (breast cancer), > 16400 pM in test [1] and 14600 pM with N87 (gastric cancer).

Turning to `CC[C@H](C)[C@@H]([C@@H](CC(=O)N1CCC[C@H]1[C@H](OC)[C@@H](C)C(=O)N[C@@H](Cc1ccccc1)c1nccs1)OC)N(C)C(=O)[C@@H](NC(=O)C1(N)CCCC1)C(C)C` [#47, N^2-[(1-aminocyclopentyl)carbonyl]-N-[(3R,4S,5S)-3-methoxy-1-{(2S)-2-[(1R,2R)-1-methoxy-2-methyl-3-oxo-3-{[(1S)-2-phenyl-1-(1,3-thiazol-2-yl)ethyl]amino}propyl]pyrrolidin-1-yl}-5-methyl-1-oxoheptan-4-yl]-N-methyl-L-valinamide] (H-[Ac5c]V[Dil][Dolaproine]-Doe), the figures for the IC50 (with BT474 (breast cancer); in test [1]; in the test on N87 (gastric cancer)) were < 244 pM, 317 pM and < 256 pM, respectively.

Take `CC[C@H](C)[C@@H]([C@@H](CC(=O)N1CCC[C@H]1[C@H](OC)[C@@H](C)C(=O)NCCc1ccccc1)OC)N(C)C(=O)[C@@H](NC(=O)C(C)(C)N)C(C)C` [#56, 2-methylalanyl-N-{(3R,4S,5S)-3-methoxy-1-[(2S)-2-{(1R,2R)-1-methoxy-2-methyl-3-oxo-3-[(2-phenylethyl)amino]propyl}pyrrolidin-1-yl]-5-methyl-1-oxoheptan-4-yl}-N-methyl-L-valinamide] (H-[Aib]V[Dil][Dolaproine]-NHPhenethyl): the half-inhibitory concentration (IC50) in the test on BT474 (breast cancer) came out at 316 pM; in test [1], 766 pM; with N87 (gastric cancer), 1260 pM.

For `CC[C@H](C)[C@@H]([C@@H](CC(=O)N1CCC[C@H]1[C@H](OC)[C@@H](C)C(=O)N[C@@H](Cc1ccccc1)C(=O)OC(C)(C)C)OC)N(C)C(=O)[C@@H](NC(=O)C(C)(C)NC)C(C)C` [#130, N,2-dimethylalanyl-N-[(3R,4S,5S)-1-{(2S)-2-[(1R,2R)-3-{[(2S)-1-tert-butoxy-1-oxo-3-phenylpropan-2-yl]amino}-1-methoxy-2-methyl-3-oxopropyl]pyrrolidin-1-yl}-3-methoxy-5-methyl-1-oxoheptan-4-yl]-N-methyl-L-valinamide] (H-[NMeAib]V[Dil][Dolaproine]F-OtBu), the IC50 with BT474 (breast cancer) stood at 50 pM; in test [1] it was 39 pM.

Turning to `CC[C@H](C)[C@@H]([C@@H](CC(=O)N1CCC[C@H]1[C@H](OC)[C@@H](C)C(=O)N[C@@H](Cc1ccccc1)C(=O)NC(C)(C)C)OC)N(C)C(=O)[C@@H](NC(=O)C(C)(C)NC)C(C)C` [#144, N,2-dimethylalanyl-N-{(1S,2R)-4-{(2S)-2-[(1R,2R)-3-{[(1S)-1-benzyl-2-(tert-butylamino)-2-oxoethyl]amino}-1-methoxy-2-methyl-3-oxopropyl]pyrrolidin-1-yl}-2-methoxy-1-[(1S)-1-methylpropyl]-4-oxobutyl}-N-methyl-L-valinamide] (H-[NMeAib]V[Dil][Dolaproine]F-NHtBu), the results for the IC50 (with BT474 (breast cancer); in test [1]) were 172 pM and 174 pM, respectively.

For the compound `CC[C@H](C)[C@@H]([C@@H](CC(=O)N1CCC[C@H]1[C@H](OC)[C@@H](C)C(=O)NCCC1C=CC=CC=C1)OC)N(C)C(=O)[C@@H](NC(=O)[C@@]1(C)CCCCN1)C(C)C` [#180, (2R)—N-[(2S)-1-{[(3R,4S,5S)-1-{(2S)-2-[(1R,2R)-3-{[2-(cyclohepta-2,4,6-trien-1-yl)ethyl]amino}-1-methoxy-2-methyl-3-oxopropyl]pyrrolidin-1-yl}-3-methoxy-5-methyl-1-oxoheptan-4-yl](methyl)amino}-3-methyl-1-oxobutan-2-yl]-2-methylpiperidine-2-carboxamide], the IC50 in the test on BT474 (breast cancer) worked out at 159 pM; in test [1] it was 113 pM.

For the compound `CC[C@H](C)[C@@H]([C@@H](CC(=O)N1CCC[C@H]1[C@H](OC)[C@@H](C)C(=O)N[C@@H](Cc1ccccc1)c1nccs1)OC)N(C)C(=O)[C@@H](NC(=O)[C@@]1(F)CCNC1)C(C)C` [#192, N˜2˜-{[(3R)-3-fluoropyrrolidin-3-yl]carbonyl}-N-[(3R,4S,5S)-3-methoxy-1-{(2S)-2-[(1R,2R)-1-methoxy-2-methyl-3-oxo-3-{[(1S)-2-phenyl-1-(1,3-thiazol-2-yl)ethyl]amino}propyl]pyrrolidin-1-yl}-5-methyl-1-oxoheptan-4-yl]-N-methyl-L-valinamide], the IC50 with BT474 (breast cancer) is 262 pM; in test [1] it was 408 pM.

As to `CC[C@H](C)[C@@H]([C@@H](CC(=O)N1CCC[C@H]1[C@H](OC)[C@@H](C)C(=O)N[C@@H](Cc1ccccc1)c1nccs1)OC)N(C)C(=O)[C@@H](NC(=O)[C@]1(F)CCNC1)C(C)C` [#194, N˜2˜-{[(3S)-3-fluoropyrrolidin-3-yl]carbonyl}-N-[(3R,4S,5S)-3-methoxy-1-{(2S)-2-[(1R,2R)-1-methoxy-2-methyl-3-oxo-3-{[(1S)-2-phenyl-1-(1,3-thiazol-2-yl)ethyl]amino}propyl]pyrrolidin-1-yl}-5-methyl-1-oxoheptan-4-yl]-N-methyl-L-valinamide], the results for the concentration for half-maximal inhibition (IC50) (in the test with BT474 (breast cancer); in test [1]) were 134 pM and 198 pM, respectively.

On to `CC[C@H](C)[C@@H]([C@@H](CC(=O)N1CCC[C@H]1[C@H](OC)[C@@H](C)C(=O)N[C@@H](Cc1ccc(N)cc1)C(=O)OC)OC)N(C)C(=O)[C@@H](NC(=O)[C@@]1(C)CCCN1C)C(C)C` [#201, 1,2-dimethyl-D-prolyl-N-[(3R,4S,5S)-1-{(2S)-2-[(1R,2R)-3-{[(2S)-3-(4-aminophenyl)-1-methoxy-1-oxopropan-2-yl]amino}-1-methoxy-2-methyl-3-oxopropyl]pyrrolidin-1-yl}-3-methoxy-5-methyl-1-oxoheptan-4-yl]-N-methyl-L-valinamide] (X1-V[Dil][Dolaproine][Phe(4-NH2)]-OMe), for which the IC50 was 144 pM with BT474 (breast cancer) and 121 pM in test [1].

`CC[C@H](C)[C@@H]([C@@H](CC(=O)N1CCC[C@H]1[C@H](OC)[C@@H](C)C(=O)N[C@@H](Cc1ccccc1)C(=O)Nc1ccc(-c2nc3cc(F)ccc3s2)cc1C)OC)N(C)C(=O)[C@@H](NC(=O)C(C)(C)N)C(C)C` [#235] (H-[Aib]V[Dil][Dolaproine]F-X9): the IC50 in the test with BT474 (breast cancer) came out at 852 pM; in test [1], 1280 pM.
